Converted amounts (≈) assume the structure as drawn. The source made the active and inactive calls. The rule behind the calls is not given here.
Tests used:
Staphylococcus aureus [1] = experiment: Anti-bacterial activity against Staphylococcus aureus ATCC 25923 assessed as inhibition of bacterial growth; type: functional; settings: Staphylococcus aureus, ATCC 25923; read-out: MIC
Acinetobacter baumannii [2] = experiment: Drug resistance, ratio of MIC for Acinetobacter baumannii after 20 passages exposure to MIC for Acinetobacter baumannii after first exposure; type: functional
Pseudomonas aeruginosa [3] = experiment: Anti-bacterial activity against Pseudomonas aeruginosa ATCC 15442 assessed as inhibition of bacterial growth; type: functional; settings: Pseudomonas aeruginosa, ATCC 15442; read-out: MIC
Pseudomonas aeruginosa [4] = experiment: Anti-bacterial activity against Pseudomonas aeruginosa CMCC (B) 10104 assessed as inhibition of bacterial growth; type: functional; settings: Pseudomonas aeruginosa, CMCC (B) 10104; read-out: MIC
Escherichia coli [5] = experiment: Anti-bacterial activity against Escherichia coli ATCC 25922 assessed as growth inhibition by measuring optical density measured at 1 times of MIC of norfloxacin by Checkerboard assay (reference value: 0.129); type: functional
Escherichia coli [6] = experiment: Anti-bacterial activity against Escherichia coli JM109 assessed as inhibition of bacterial growth; type: functional
Escherichia coli [7] = experiment: Anti-bacterial activity against Escherichia coli ATCC 25922 assessed as growth inhibition by measuring optical density measured at 1/8 times of MIC of norfloxacin by Checkerboard assay (reference value: 0.129); type: functional
Escherichia coli [8] = experiment: (§1) Anti-bacterial activity against Escherichia coli ATCC 25922 assessed as fractional inhibitory concentration measured upto 9 hrs in presence of ethyl(E)-6-((4-(2-(2-aminothiazol-4-yl)-2-(methoxyimino)acetyl)piperazin-1-yl)methyl)-4-(2-butyl-4-chloro-1H-imidazole-5-yl)-2-oxo-1,2,3,4-tetrahydropyrimidine-5-carboxylate; type: functional
Pseudomonas aeruginosa [9] = experiment: Anti-bacterial activity against Pseudomonas aeruginosa ST235 assessed as inhibition of bacterial growth; type: functional; settings: Pseudomonas aeruginosa, ST235; read-out: MIC
Staphylococcus aureus [10] = experiment: Anti-bacterial activity against methicillin-resistant Staphylococcus aureus ATCC 43300 assessed as inhibition of bacterial growth; type: functional; settings: Staphylococcus aureus, ATCC 43300; read-out: MIC
Acinetobacter baumannii [11] = experiment: Anti-bacterial activity against Acinetobacter baumannii assessed as growth inhibition by measuring optical density measured at 1/8 time of MIC (reference value: 0.156); type: functional
Staphylococcus aureus [12] = experiment: Anti-bacterial activity against Staphylococcus aureus ATCC 6538 assessed as inhibition of bacterial growth; type: functional
Staphylococcus aureus [13] = experiment: Anti-bacterial activity against Staphylococcus aureus ATCC 1708 assessed as inhibition of bacterial growth; type: functional; settings: Staphylococcus aureus, ATCC 1708; read-out: MIC
Staphylococcus aureus [14] = experiment: Anti-bacterial activity against methicillin-resistant Staphylococcus aureus N315 assessed as inhibition of bacterial growth; type: functional; settings: Staphylococcus aureus, N315; read-out: MIC
Acinetobacter baumannii [15] = experiment: Anti-bacterial activity against Acinetobacter baumannii R674 assessed as inhibition of bacterial growth; type: functional
Escherichia coli [16] = experiment: Anti-bacterial activity against Escherichia coli ATCC 25922 assessed as growth inhibition by measuring optical density measured at 1/4 times of MIC of norfloxacin by Checkerboard assay (reference value: 0.129); type: functional
Staphylococcus aureus [17] = experiment: Anti-bacterial activity against Staphylococcus aureus ATCC 12600 assessed as inhibition of bacterial growth; type: functional; settings: Staphylococcus aureus, ATCC 12600; read-out: MIC
Staphylococcus aureus [18] = experiment: Anti-bacterial activity against Staphylococcus aureus CMCC (B) 26003 assessed as inhibition of bacterial growth; type: functional
Klebsiella pneumoniae = experiment: Anti-bacterial activity against Klebsiella pneumoniae KPN325 assessed as inhibition of bacterial growth; type: functional; settings: Klebsiella pneumoniae, KPN325; read-out: MIC
Staphylococcus aureus [19] = experiment: Anti-bacterial activity against Staphylococcus aureus ATCC 29213 assessed as inhibition of bacterial growth; type: functional; settings: Staphylococcus aureus, ATCC 29213; read-out: MIC
Enterococcus faecalis = experiment: Anti-bacterial activity against Enterococcus faecalis V583 assessed as inhibition of bacterial growth; type: functional
Escherichia coli [20] = experiment: Drug resistance, ratio of MIC for Escherichia coli ATCC 25922 after 20 passages exposure to MIC for Escherichia coli ATCC 25922 after first exposure; type: functional
Pseudomonas aeruginosa [21] = experiment: Anti-bacterial activity against Pseudomonas aeruginosa ATCC 9027 assessed as inhibition of bacterial growth; type: functional
Staphylococcus aureus [22] = experiment: Anti-bacterial activity against Staphylococcus aureus CMCC (B) 26001 assessed as inhibition of bacterial growth; type: functional
Escherichia coli [23] = experiment: Anti-bacterial activity against Escherichia coli ATCC 25922 assessed as inhibition of bacterial growth measured after 6-7 th passages at sub-MIC concentration by multiple resistance study; type: functional, organism-based
Acinetobacter baumannii [24] = experiment: Anti-bacterial activity against Acinetobacter baumannii assessed as growth inhibition by measuring optical density measured at 2 time of MIC (reference value: 0.156); type: functional
Escherichia coli [25] = experiment: Anti-bacterial activity against Escherichia coli ATCC 25922 assessed as growth inhibition by measuring optical density measured at 1/2 times of MIC of norfloxacin by Checkerboard assay (reference value: 0.129); type: functional
Pseudomonas aeruginosa [26] = experiment: Anti-bacterial activity against Pseudomonas aeruginosa ATCC 27853 assessed as inhibition of bacterial growth; type: functional; settings: Pseudomonas aeruginosa, ATCC 27853; read-out: MIC
Acinetobacter baumannii [27] = experiment: as §1, with “Acinetobacter baumannii” for “Escherichia coli ATCC 25922”; type: functional
Acinetobacter baumannii [28] = experiment: Anti-bacterial activity against Acinetobacter baumannii assessed as growth inhibition by measuring optical density measured at 1/2 time of MIC (reference value: 0.156); type: functional
Acinetobacter baumannii [29] = experiment: Anti-bacterial activity against Acinetobacter baumannii assessed as inhibition of bacterial growth measured after 6-7 th passages at sub-MIC concentration by multiple resistance study; type: functional, organism-based
Acinetobacter baumannii [30] = experiment: Anti-bacterial activity against Acinetobacter baumannii assessed as growth inhibition by measuring optical density measured at 1/4 time of MIC (reference value: 0.156); type: functional
Acinetobacter baumannii [31] = experiment: Anti-bacterial activity against Acinetobacter baumannii assessed as growth inhibition by measuring optical density measured at 1 time of MIC (reference value: 0.156); type: functional
Escherichia coli [32] = experiment: Anti-bacterial activity against Escherichia coli ATCC 25922 assessed as growth inhibition by measuring optical density measured at 2 times of MIC of norfloxacin by Checkerboard assay (reference value: 0.129); type: functional
Escherichia coli [33] = experiment: Anti-bacterial activity against Escherichia coli ATCC 25922 assessed as inhibition of bacterial growth; type: functional

CCn1cc(C(=O)O)c(=O)c2cc(F)c(N3CCNCC3)cc21 [NORFLOXACIN]
MIC (Staphylococcus aureus [1]): 6 µM (≈ 1.92 µg/mL) | Ratio (Acinetobacter baumannii [2]): 32 | MIC (Pseudomonas aeruginosa [3]): 6 µM (≈ 1.92 µg/mL) | MIC (Pseudomonas aeruginosa [4]): 6 µM (≈ 1.92 µg/mL) | OD (Escherichia coli [5]): 0.129 | MIC (Escherichia coli [6]): 25 µM (≈ 7.98 µg/mL) | OD (Escherichia coli [7]): 0.125 | FIC (Escherichia coli [8]): 0.25 | MIC (Pseudomonas aeruginosa [9]): 6 µM (≈ 1.92 µg/mL) | MIC (Staphylococcus aureus [10]): 3 µM (≈ 0.958 µg/mL) | OD (Acinetobacter baumannii [11]): 0.155 | MIC (Staphylococcus aureus [12]): 6 µM (≈ 1.92 µg/mL) | MIC (Staphylococcus aureus [13]): 3 µM (≈ 0.958 µg/mL) | MIC (Staphylococcus aureus [14]): 6 µM (≈ 1.92 µg/mL) | MIC (Acinetobacter baumannii [15]): 13 µM (≈ 4.15 µg/mL) | OD (Escherichia coli [16]): 0.128 | MIC (Staphylococcus aureus [17]): 6 µM (≈ 1.92 µg/mL) | MIC (Staphylococcus aureus [18]): 6 µM (≈ 1.92 µg/mL) | MIC (Klebsiella pneumoniae): 3 µM (≈ 0.958 µg/mL) | MIC (Staphylococcus aureus [19]): 6 µM (≈ 1.92 µg/mL) | MIC (Enterococcus faecalis): 6 µM (≈ 1.92 µg/mL) | Ratio (Escherichia coli [20]): 16 | MIC (Pseudomonas aeruginosa [21]): 6 µM (≈ 1.92 µg/mL) | MIC (Staphylococcus aureus [22]): 6 µM (≈ 1.92 µg/mL) | Activity (Escherichia coli [23]): inactive | OD (Acinetobacter baumannii [24]): 0.136 | OD (Escherichia coli [25]): 0.128 | MIC (Pseudomonas aeruginosa [26]): 25 µM (≈ 7.98 µg/mL) | FIC (Acinetobacter baumannii [27]): 0.25 | OD (Acinetobacter baumannii [28]): 0.141 | Activity (Acinetobacter baumannii [29]): inactive | OD (Acinetobacter baumannii [30]): 0.142 | OD (Acinetobacter baumannii [31]): 0.138 | OD (Escherichia coli [32]): 0.128 | MIC (Escherichia coli [33]): 13 µM (≈ 4.15 µg/mL)
